The values below come from ChEMBL document CHEMBL1201862, “PubChem BioAssay data set” (2004).

Activity calls are given as the source filed them.

Data set [1] has as its target Glucose-6-phosphate 1-dehydrogenase (Homo sapiens, UniProt P11413). The experiment in a line: inhibition of Homo sapiens G6PD, dose series – biochemical, fluorescence, selectivity assay for P. falciparum G6PD inhibitor project, dose response (AID 504792). In kind it is functional.
The target of data set [2] is T1, Rac GTPase-activating protein 1 (Homo sapiens, UniProt Q9H0H5).
T1 sequence (Q9H0H5 whole entry): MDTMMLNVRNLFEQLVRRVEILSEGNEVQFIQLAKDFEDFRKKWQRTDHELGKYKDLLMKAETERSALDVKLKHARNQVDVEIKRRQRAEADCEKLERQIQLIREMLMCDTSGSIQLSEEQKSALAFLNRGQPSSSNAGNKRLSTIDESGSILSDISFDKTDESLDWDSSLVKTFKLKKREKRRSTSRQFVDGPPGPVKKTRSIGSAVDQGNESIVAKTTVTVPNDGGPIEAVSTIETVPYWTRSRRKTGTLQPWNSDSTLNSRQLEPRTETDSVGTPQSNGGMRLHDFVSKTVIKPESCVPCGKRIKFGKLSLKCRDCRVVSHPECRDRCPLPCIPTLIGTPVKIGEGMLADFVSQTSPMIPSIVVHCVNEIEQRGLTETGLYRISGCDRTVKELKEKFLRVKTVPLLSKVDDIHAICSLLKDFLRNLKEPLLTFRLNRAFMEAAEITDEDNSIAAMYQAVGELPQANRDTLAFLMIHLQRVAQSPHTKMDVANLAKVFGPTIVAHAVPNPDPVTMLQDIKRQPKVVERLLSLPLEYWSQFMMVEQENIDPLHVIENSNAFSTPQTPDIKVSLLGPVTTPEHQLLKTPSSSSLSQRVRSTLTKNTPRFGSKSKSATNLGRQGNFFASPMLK
The experiment in a line: blockers of MgcRacGAP-driven Rac1 GTP hydrolysis – biochemical, ADP Hunter fluorescence, primary and confirmatory, confirmation (AID 624330). In kind it is functional.

Data set [3] has as its target T2, Short transient receptor potential channel 4 (Mus musculus, UniProt Q9QUQ5).
T2 sequence (Q9QUQ5 whole entry): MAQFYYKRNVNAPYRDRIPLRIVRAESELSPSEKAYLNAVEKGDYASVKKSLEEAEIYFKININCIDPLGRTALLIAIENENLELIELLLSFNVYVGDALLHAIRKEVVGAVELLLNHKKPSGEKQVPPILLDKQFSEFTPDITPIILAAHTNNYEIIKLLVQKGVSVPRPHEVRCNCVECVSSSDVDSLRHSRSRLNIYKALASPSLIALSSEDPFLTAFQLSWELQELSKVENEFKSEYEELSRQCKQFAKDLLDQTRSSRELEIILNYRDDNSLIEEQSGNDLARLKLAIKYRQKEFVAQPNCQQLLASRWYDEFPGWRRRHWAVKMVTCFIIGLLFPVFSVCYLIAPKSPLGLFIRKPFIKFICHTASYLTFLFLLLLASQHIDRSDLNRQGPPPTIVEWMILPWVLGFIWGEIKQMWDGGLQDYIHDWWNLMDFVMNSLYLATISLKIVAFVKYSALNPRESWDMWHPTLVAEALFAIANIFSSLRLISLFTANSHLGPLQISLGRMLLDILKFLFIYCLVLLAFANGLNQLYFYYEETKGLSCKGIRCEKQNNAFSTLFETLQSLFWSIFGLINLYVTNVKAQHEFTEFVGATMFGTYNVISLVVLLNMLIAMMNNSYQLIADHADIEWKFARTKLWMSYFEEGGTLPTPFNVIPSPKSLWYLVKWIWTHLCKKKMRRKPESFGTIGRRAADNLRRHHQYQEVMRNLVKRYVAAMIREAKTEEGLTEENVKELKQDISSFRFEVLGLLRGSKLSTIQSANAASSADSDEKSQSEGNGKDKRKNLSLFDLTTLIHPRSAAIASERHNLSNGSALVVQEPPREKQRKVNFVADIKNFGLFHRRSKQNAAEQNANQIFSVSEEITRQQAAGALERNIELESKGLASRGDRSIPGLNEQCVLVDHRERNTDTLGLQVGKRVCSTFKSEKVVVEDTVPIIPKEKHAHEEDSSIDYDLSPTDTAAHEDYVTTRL
The experiment in a line: calcium entry via TRPC4 opening agents – cell-based, HEK293 TRPC4/mu-opioid, Fluo-4 calcium, dose response (AID 434937). In kind it is functional.

Data set [4] addresses Cytochrome P450 2C9 (Homo sapiens, UniProt P11712).
Data set [5] deals with T3, Apoptotic protease-activating factor 1 (Homo sapiens, UniProt O14727).
T3 sequence (O14727 whole entry): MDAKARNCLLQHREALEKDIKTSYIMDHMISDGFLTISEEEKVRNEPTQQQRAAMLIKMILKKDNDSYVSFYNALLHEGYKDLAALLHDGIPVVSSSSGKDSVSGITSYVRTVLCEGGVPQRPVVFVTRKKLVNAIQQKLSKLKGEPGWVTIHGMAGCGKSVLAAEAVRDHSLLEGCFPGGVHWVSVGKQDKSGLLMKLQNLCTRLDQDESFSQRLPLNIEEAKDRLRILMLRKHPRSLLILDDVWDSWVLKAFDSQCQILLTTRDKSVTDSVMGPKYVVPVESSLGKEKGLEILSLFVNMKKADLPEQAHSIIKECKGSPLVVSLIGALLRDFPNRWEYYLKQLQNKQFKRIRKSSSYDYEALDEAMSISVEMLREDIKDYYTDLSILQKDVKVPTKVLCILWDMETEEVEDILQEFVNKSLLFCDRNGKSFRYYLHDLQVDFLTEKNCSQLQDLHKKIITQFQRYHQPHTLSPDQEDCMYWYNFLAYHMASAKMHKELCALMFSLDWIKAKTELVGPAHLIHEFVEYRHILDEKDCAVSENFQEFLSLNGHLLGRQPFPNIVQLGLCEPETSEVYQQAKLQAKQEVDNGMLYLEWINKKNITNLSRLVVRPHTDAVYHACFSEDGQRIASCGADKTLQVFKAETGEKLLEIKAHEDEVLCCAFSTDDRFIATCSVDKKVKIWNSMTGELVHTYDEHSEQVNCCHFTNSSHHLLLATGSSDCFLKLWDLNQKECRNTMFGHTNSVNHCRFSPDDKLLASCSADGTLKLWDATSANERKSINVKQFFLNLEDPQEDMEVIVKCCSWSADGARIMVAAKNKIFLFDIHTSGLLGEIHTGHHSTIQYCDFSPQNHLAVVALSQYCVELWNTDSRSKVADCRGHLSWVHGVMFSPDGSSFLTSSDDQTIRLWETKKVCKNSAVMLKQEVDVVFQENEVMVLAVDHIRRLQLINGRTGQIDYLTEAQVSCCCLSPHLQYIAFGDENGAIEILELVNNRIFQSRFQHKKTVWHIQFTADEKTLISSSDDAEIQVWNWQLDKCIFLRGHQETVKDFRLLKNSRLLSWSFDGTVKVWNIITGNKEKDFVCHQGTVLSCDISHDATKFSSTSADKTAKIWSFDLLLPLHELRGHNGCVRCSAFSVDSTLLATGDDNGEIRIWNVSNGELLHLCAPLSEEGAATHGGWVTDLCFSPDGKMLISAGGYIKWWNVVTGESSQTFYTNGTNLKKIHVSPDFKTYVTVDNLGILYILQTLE
Put plainly: SAR analysis of small molecule Activators of Apaf-1 in a Fluorescent assay. In kind it is functional. The settings on record: read-out: EC50_Mean.

The test system of data set [6] is H9c2. The experiment in a line: cells. Format: functional, cell-based. The settings on record: Rattus norvegicus, H9c2, Myocardium.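 Further: confirmatory concentration-response retest of ultra-high-throughput screening hits for modulation of myocardial damage; cell death induced by hydrogen peroxide oxidative stress; compound pretreatment for 60 min then peroxide exposure for 2 h; potency is for protecting the cells against peroxide damage rather than for killing them.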
Data set [7] deals with DNA dC->dU-editing enzyme APOBEC-3A (Homo sapiens, UniProt P31941). Put plainly: Dose Response confirmation of small molecule APOBEC3A DNA Deaminase Inhibitors via a fluorescence-based single-stranded DNA deaminase assay. [Related pubchem assays (depositor defined):AID493011, AID493024]. In kind it is functional.
The target in data set [8] is DNA dC->dU-editing enzyme APOBEC-3G (Homo sapiens, UniProt Q9HC16). In kind it is functional.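 Further: Dose-response counterscreen measuring inhibition of APOBEC3G DNA deaminase activity, run while confirming APOBEC3A inhibitors.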
Data set [9] has as its target T4, Carboxy-terminal domain RNA polymerase II polypeptide A small phosphatase 1 (Homo sapiens, UniProt Q9GZU7).
T4 sequence (Q9GZU7 whole entry): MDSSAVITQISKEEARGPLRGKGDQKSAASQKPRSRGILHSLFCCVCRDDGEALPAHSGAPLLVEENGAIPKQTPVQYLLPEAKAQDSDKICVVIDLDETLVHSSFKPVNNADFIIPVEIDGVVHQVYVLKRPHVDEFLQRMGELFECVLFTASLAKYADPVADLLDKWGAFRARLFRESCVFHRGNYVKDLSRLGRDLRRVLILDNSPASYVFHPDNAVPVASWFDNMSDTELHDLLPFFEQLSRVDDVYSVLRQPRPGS
The experiment in a line: CTDSP1 inhibitors, concentration-response, biochemical, absorbance readout, ultra-high-throughput screen actives (AID 540297). In kind it is functional.

Data set [10] relates to HEK293. Put plainly: EBV LMP1 TES2 canonical NF-kB signalling blockers – cell-based, HEK293, luciferase, cherry-pick, dose response (AID 588343). In kind it is functional. The settings on record: Homo sapiens.
The nature of data set [11]: Trypanosoma cruzi growth suppression in host cells – NIH3T3 host cells, beta-gal luminescence, confirmation (AID 2044).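 Further: intracellular parasites grown in NIH/3T3 mouse fibroblasts as host cells; luminescent beta-galactosidase reporter signal from transgenic T. cruzi replicating inside host cells; inhibitors lower the luminescence signal.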 In kind it is functional, cell-based.
Data set [12] in a line: NIH3T3 cell viability loss – ATP luminescence, mouse fibroblasts, counter-screen, dose response (AID 2010).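 Further: cells exposed to compound for about 90 hours before reading.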 Format: functional, cell-based. For orientation: Counterscreens check selectivity or assay interference.
Data set [13] is described as follows: cells.
Data set [14] has as its target Cytochrome P450 3A4 (Homo sapiens, UniProt P08684).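 Further: CYP3A4 tested as one member of a cytochrome P450 panel screen.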
For data set [15], the target named is Melanocortin receptor 4 (Homo sapiens, UniProt P32245). Format: functional, cell-based.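 Further: Cell-based assay with luminescence read-out, confirmatory dose-response testing for agonist activity of biased ligands at MC4R; human U2OS cells with tagged receptor and beta-arrestin; potency of agonists that increase receptor coupling to beta-arrestin.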
Data set [16] can be described thus: Luminescence Cell-Based Dose Confirmation HTS to Identify Activators of 5'UTR Stem-Loop Driven Alpha-Synuclein mRNA Translation in H4 Neuroglioblastoma Cells. [Related pubchem assays: 1829 (Project Summary), 1814 (Primary HTS)]. Format: functional.
Data set [17] can be described thus: Luminescence Cell-Based Dose Response HTS to Identify Activators of Luciferase Translation or Activity in H4 […] Cells. [Related pubchem assays: 1829 (Project Summary), 1814 (Primary HTS)]. Format: functional.
Data set [18] has as its system H4. The experiment in a line: Luminescence Cell-Based Dose Response HTS to Identify Activators of 5'UTR Stem-Loop Driven Prion Protein mRNA Translation in H4 Neuroglioblastoma Cells. [Related pubchem assays: 1829 (Project Summary), 1814 (Primary HTS)]. The note with it: Homo sapiens. In kind it is functional.
Data set [19] is described as follows: microbe, parasite or virus in culture. In kind it is functional. The settings on record: Mycobacterium tuberculosis.
In data set [20] the target is T5, Low molecular weight phosphotyrosine protein phosphatase (Homo sapiens, UniProt P24666).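 Further: Dose-response confirmation assay measuring inhibition of LMPTP enzyme activity by fluorescence intensity read-out.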
T5 sequence (P24666 whole entry): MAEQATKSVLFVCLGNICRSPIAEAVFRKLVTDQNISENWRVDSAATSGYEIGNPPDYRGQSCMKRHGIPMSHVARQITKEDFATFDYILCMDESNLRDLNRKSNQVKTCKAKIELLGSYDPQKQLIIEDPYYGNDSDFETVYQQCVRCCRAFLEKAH
Format: functional. The note with it: read-out: IC50_Mean.

The AC50 is the midpoint of the concentration-response curve, whichever way the signal moves.
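Wherever EC50 Mean is given: caspase-3 cleavage of fluorogenic Rh110 DEVD substrate downstream of apoptosome activation.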

Sequence of Cytochrome P450 2C9 (P11712 whole entry): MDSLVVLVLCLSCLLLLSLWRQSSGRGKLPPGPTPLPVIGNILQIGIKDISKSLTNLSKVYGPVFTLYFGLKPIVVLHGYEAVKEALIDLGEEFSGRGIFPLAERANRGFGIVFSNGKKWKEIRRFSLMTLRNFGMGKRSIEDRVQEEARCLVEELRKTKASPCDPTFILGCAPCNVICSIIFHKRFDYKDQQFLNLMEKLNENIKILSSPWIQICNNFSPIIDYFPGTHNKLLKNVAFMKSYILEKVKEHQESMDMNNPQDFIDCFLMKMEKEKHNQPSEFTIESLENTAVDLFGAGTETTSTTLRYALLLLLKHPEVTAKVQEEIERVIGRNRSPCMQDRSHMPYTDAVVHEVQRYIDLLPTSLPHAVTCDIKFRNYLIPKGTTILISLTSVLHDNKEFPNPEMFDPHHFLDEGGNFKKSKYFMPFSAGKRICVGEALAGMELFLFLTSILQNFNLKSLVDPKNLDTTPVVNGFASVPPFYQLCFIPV
Sequence of Melanocortin receptor 4 (P32245 whole entry): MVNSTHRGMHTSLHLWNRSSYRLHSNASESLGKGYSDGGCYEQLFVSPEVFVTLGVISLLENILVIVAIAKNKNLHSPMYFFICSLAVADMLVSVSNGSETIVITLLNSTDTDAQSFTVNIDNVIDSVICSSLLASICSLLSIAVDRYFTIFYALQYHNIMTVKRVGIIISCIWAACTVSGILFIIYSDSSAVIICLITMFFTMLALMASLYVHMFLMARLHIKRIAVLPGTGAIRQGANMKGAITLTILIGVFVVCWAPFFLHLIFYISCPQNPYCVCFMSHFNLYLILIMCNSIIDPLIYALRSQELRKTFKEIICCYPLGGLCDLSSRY
Sequence of Glucose-6-phosphate 1-dehydrogenase (P11413 whole entry): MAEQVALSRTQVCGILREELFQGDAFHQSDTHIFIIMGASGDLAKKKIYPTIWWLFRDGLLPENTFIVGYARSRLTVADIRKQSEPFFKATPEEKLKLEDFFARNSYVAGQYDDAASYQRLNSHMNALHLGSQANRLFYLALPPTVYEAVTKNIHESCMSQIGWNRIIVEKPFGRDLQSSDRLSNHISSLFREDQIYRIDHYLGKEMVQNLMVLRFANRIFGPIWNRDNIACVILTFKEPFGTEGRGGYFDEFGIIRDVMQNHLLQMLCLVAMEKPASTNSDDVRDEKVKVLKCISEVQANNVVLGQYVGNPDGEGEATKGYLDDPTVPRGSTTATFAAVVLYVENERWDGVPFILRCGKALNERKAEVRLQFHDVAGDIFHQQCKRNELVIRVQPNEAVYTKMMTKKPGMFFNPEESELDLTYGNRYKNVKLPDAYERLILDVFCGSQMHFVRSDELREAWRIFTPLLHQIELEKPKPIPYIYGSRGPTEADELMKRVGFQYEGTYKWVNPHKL
Sequence of Cytochrome P450 3A4 (P08684 whole entry): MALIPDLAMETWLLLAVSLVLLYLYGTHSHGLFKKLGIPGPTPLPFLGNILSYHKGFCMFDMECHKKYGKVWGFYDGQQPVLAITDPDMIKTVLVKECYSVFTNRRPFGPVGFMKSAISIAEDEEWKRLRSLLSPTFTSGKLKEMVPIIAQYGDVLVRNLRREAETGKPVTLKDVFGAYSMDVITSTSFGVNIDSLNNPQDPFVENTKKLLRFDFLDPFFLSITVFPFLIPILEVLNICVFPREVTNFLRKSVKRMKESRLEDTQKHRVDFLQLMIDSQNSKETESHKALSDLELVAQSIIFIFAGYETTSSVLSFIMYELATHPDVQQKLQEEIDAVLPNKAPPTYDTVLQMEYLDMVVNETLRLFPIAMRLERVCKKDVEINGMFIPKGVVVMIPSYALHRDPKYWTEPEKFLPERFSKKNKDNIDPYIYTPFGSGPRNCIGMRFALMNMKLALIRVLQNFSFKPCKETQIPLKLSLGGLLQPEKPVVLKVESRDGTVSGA
Sequence of DNA dC->dU-editing enzyme APOBEC-3A (P31941 whole entry): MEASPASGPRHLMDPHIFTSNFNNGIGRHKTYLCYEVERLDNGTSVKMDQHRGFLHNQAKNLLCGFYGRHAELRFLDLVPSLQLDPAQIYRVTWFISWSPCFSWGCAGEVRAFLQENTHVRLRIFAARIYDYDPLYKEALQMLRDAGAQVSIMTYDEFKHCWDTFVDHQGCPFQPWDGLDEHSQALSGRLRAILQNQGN
Sequence of DNA dC->dU-editing enzyme APOBEC-3G (Q9HC16 whole entry, the tested form may be a part): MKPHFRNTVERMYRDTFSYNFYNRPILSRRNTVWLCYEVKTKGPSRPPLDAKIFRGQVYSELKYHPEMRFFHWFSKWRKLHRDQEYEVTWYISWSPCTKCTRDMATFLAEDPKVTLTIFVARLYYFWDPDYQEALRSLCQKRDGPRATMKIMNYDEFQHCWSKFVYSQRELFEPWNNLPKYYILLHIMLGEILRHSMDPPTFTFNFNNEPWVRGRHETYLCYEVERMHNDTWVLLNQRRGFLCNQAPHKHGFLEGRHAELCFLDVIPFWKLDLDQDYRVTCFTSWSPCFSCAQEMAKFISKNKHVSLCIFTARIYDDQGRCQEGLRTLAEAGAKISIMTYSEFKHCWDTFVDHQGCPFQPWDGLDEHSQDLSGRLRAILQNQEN

`COc1cc(Sc2ccc(C)cc2)c(OC)cc1N`: the IC50 is > 80 µM (inactive) in data set [1] and 24.8 µM (active) in data set [2].
Take `COC(=O)c1cc(N2CCNCC2)nc2ccccc12`: in [3], the EC50 is 1.19 µM (active).
Regarding `CCc1nc(NCCc2ccccn2)c2nnn(Cc3ccccc3F)c2n1`, the EC50 in [3] was 2.66 µM (active).
For `COC(=O)c1cnn(C(=O)c2cc(OC)ccc2Br)c1N`, the AC50 entry in data set [4] is recorded as “inconclusive”.
Regarding `CC1CCCC(C)N1C(=O)C1CC(c2ccc(F)cc2)=NO1` (stereo not given), the EC50 in data set [5] was > 100 µM (inactive).
For the compound `Cc1cc(C)c2sc(NC(=O)C3=COCCO3)nc2c1`, the IC50 in [1] was > 80 µM (inactive).
Turning to `Cc1ccc(C)c(S(=O)(=O)N2CCN(C(=O)CCc3nc(O)c4ccccc4n3)CC2)c1`, the EC50 in data set [3] was 4.73 µM (active). In addition, the IC50 in [6] is > 79 µM (inactive).
As to `CC(=C\C(=O)O)/C(=C/c1ccccc1)C(=O)O`, the AC50 result in data set [4] is “inconclusive”.
`CCn1c2c(c(C)[n+]1CC)C(=O)CC(C)(C)C2`: the IC50 was 1.89 µM (active) in data set [7], 3.74 µM (active) in data set [8] and 18.9 µM (active) in data set [9].
As to `Cc1cccc(Cn2cc(C=O)c3ccccc32)c1`, the AC50 in data set [10] was 33.3 µM (active).
Regarding `O=C(NCCc1c[nH]cn1)c1ccc(-c2ccccc2)cc1`, the EC50 in [11] was < 0.1 µM (active); in [12], > 30 µM (not active); in data set [3], 5.96 µM (active); in data set [13], 0.062 µM (active).
`Cc1ccc2c(c1)C1(SCCS1)C(=O)N2`: the AC50 is 11.2 µM (inconclusive) in [14] and “inconclusive” in [4].
Take `Cc1ccc(C)c(Cn2c(O)c(N=NC(S)=Nc3ccccc3F)c3ccccc32)c1`: the EC50 in data set [11] is 1.17 µM (active); in data set [12], > 60 µM (not active). Moreover, the AC50 in data set [10] was 2.44 µM (active).
For `CC(=O)Nc1cc(-c2ccc(C(=O)NC3CC3)cc2)cn2c(-c3cccc(C(C)=O)c3)cnc12`, the IC50 in [6] is 16.3 µM (active). In addition, the EC50 in data set [15] was > 89.2 µM (inactive).
For `COc1cc(-c2cc(NC=O)c3ncc(-c4ccccc4)n3c2)cc(OC)c1OC` the same measures were > 79 µM (inactive) and > 89.2 µM (inactive).
As to `CCc1ccc(-c2ccc(=O)[nH]n2)cc1S(=O)(=O)CCC(=O)Nc1ccccc1OC`, the EC50 in data set [5] was > 100 µM (inactive).
With `O=C1CC2(CC(c3c(F)cccc3Cl)=NO2)C(=O)N1c1ccccc1` (stereo not given), the EC50 in [5] was > 100 µM (inactive).
For the compound `FC(F)(F)c1ccc(Nc2nnnc3ccccc23)cc1`, the EC50 in [16] is 7.83 µM (active); in [17], 38 µM (active); in data set [18], 6.68 µM (active). For the same compound, in [19], the CC50 is > 40 µM (active). The IC50 in [9] was 8.61 µM (active); in [20], 6.59 µM (active).
